Square brackets hold non-standard residues; d marks the D form. Ends that are not written are not given here. Lys(Me3) = C[N+](C)(C)CCCC[C@H](N)C(=O)O
Experiments:
[1] = molecular target: T1, KDM4E (Homo sapiens, UniProt B2RXH2); assay: LC-MS demethylation activity assay, KDM4E; assay type: biochemical; details: 10 μM FAS, 100 μM LAA, 20 μM 2OG, room temperature
T1 construct: KDM4DM1-L359,[39]; KDM4EM1-R336,[30]; His6 (N); made in house; host or cells: Escherichia coli
T1 sequence (B2RXH2 1-336): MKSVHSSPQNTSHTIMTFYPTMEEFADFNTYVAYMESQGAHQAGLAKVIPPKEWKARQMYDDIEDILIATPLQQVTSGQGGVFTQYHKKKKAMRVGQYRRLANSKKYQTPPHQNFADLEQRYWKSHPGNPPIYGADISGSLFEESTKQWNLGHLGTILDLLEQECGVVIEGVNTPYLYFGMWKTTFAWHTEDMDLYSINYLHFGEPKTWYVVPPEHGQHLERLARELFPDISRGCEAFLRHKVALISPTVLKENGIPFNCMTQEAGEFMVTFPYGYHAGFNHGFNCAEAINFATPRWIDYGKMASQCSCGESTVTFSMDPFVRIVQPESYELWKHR
Experimental: (§1) The substrate specificity of JmjC KDMs for H1 was examined using liquid chromatography coupled to mass spectrometry (LC-MS) assays. The H1 peptides (10 μM) were incubated with the recombinant KDM (2 μM) in HEPES buffer at pH 7.5 at room temperature for 2 h, in the presence of ferrous(II) ammonium sulfate (FAS, 10 μM), sodium ascorbate (LAA, 100 μM) and 2OG (20 μM), and then quenched with formic acid. N^ε-Methylated H3K9 and H3K36 peptides were used as positive controls (Fig. 3–5 and Fig. S2–S6).[26]
(§2) The catalytic domains of the JmjC KDMs used were recombinantly produced as reported in either Escherichia coli (KDM4AM1-L359,[38] KDM4DM1-L359,[39] KDM4EM1-R336,[30] KDM6BD1141–E1590[40] and KDM3CL2157-L2500) or Sf9 cells (KDM3AT515–S1317, KDM3B882–1761, and KDM5DM1-D775) as N-terminally His6-tagged proteins. […] To produce proteins, DNA sequences encoding for KDM3A, KDM3B and KDM5D were inserted into the pFB-LIC vector, containing a TEV-protease cleavable N-terminal 6x-histidine tag via ligation independent cloning (LIC). The resultant plasmids were transformed into baculovirus and Sf9 cells ([…]) which were infected with the virus stock. The cells were grown at 27 °C and 90 rpm for 70 h. Cells were then harvested and suspended in 100 mL of lysis buffer (50 mM HEPES-NaOH, pH 7.4, 500 mM NaCl, 20 mM imidazole, 0.5 mM Tris (2-carboxyethyl)phosphine (TCEP), 5% (v/v) glycerol). […] The supernatant was loaded onto a Ni-NTA gravity column, washed with 10 column volume of lysis buffer and eluted using the elution buffer (50 mM HEPES-NaOH, pH 7.4, 500 mM NaCl, 300 mM imidazole, 0.5 mM TCEP, 5% (v/v) glycerol). The eluted protein was further purified using S200 gel filtration column chromatography (50 mM HEPES-NaOH, pH 7.4, 150 mM NaCl, 0.5 mM TCEP and 5% glycerol). Protein purity was analysed by SDS-PAGE and further confirmed by mass spectrometry. Selected fractions were pooled, concentrated and stored at −80 °C.
(§3) All reagents were purchased from Sigma Aldrich and were of the highest grade available. Ferrous(II) ammonium sulfate (FAS) solutions were prepared freshly by dissolving FAS to 400 mM in 20 mM HCl with subsequent dilution to 1 mM using deionized water. Fresh 2OG (10 mM) and LAA (50 mM) solutions were prepared by dissolving the solids in deionised water. All enzyme reactions were performed in 384-well plates (Greiner Bio-One) with a final reaction volume of 50 μL. Substrate mixtures contained 50 mM HEPES pH 7.5, LAA (100 μM), FAS (10 μM), 2OG (20 μM) and an H1 isoform peptide (10 μM). Reactions were initiated by the addition of enzyme to a final concentration of 2.0 μM. After 2 h, the reactions were stopped by the addition of 5 μL of 10% (v/v) LC-MS grade formic acid (Fisher Scientific) to a final concentration of 1% (v/v). Product analyses were performed by liquid chromatography-mass spectrometry (LC-MS) using an Agilent 1290 infinity II LC system equipped with an Agilent 1290 multisampler and an Agilent 1290 high speed pump and connected to an Agilent 6550 accurate mass iFunnel quadrupole time of flight (Q-TOF) mass spectrometer. 1 μL of the reaction mixture was injected onto a 1.8 μm × 2.1 × 50 mm ZORBAX RRHD Eclipse Plus C18 column (Agilent). Solvent A consisted of HPLC grade water containing 0.1% (v/v) formic acid and solvent B consisted of MeCN containing 0.1% (v/v) formic acid. Peptides were separated using a stepwise gradient (0 min – 95% solvent A, 1.0 min – 80% solvent A, 3.0 min – 45% solvent A, 4.0 min – 45% solvent A, 5.0 min – 0% solvent A, 6.0 min – 0% solvent A, 7.0 min – 95% solvent A). This was followed by a 3 min post-run with 95% solvent A to re-equilibrate the column. All flow rates were 0.2 mL min^−1. A blank injection of HPLC grade water was carried out between each sample injection.

[2] = molecular target: T2, KDM4D (Homo sapiens, UniProt Q6B0I6); assay: LC-MS demethylation activity assay, KDM4D; assay type: biochemical; details: room temperature; for KDM4D demethylation activity, M: M (mono-) initial methylation state
T2 construct: KDM4AM1-L359,[38]; KDM4DM1-L359,[39]; KDM4EM1-R336,[30]; His6 (N); made in house; host or cells: Escherichia coli
T2 sequence (Q6B0I6 1-359): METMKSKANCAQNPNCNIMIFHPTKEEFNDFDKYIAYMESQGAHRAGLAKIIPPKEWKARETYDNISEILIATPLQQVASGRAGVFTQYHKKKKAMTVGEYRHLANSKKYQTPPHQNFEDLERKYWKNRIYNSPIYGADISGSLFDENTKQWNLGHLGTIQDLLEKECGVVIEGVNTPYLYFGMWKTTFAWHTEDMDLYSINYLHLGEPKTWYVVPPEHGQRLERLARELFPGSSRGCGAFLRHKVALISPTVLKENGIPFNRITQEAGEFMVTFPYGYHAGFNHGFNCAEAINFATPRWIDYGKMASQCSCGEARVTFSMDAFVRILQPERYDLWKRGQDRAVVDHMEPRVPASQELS
Experimental: as §1, §2, §3

[3] = tested on: KDM3A; assay: LC-MS demethylation activity assay, KDM3A; assay type: biochemical, human; details: 2 μM KDM, 10 μM H1/H3 peptide, 10 μM FAS, 100 μM LAA, 20 μM 2OG, 50 mM HEPES pH 7.5, 2 h, room temperature; for KDM3A demethylation activity, M: M (mono-) initial methylation state
Experimental: as §1, §2, §3

[4] = tested on: KDM3B; assay: LC-MS demethylation activity assay, KDM3B; assay type: biochemical, human; details: 2 μM KDM, 10 μM H1/H3 peptide, 10 μM FAS, 100 μM LAA, 20 μM 2OG, 50 mM HEPES pH 7.5, 2 h, room temperature; for KDM3B demethylation activity, M: M (mono-) initial methylation state
Experimental: as §1, §2, §3

[5] = tested on: KDM6B; assay: LC-MS demethylation activity assay, KDM6B; assay type: biochemical, human; details: 2 μM KDM, 10 μM H1/H3 peptide, 10 μM FAS, 100 μM LAA, 20 μM 2OG, 50 mM HEPES pH 7.5, 2 h, room temperature; for KDM6B demethylation activity, M: M (mono-) initial methylation state
Experimental: as §1, §2, §3

[6] = tested on: KDM4A; assay: LC-MS demethylation activity assay, KDM4A; assay type: biochemical, human; details: 10 μM FAS, 100 μM LAA, 20 μM 2OG, room temperature; for KDM4A demethylation activity, M: M (mono-) initial methylation state
Experimental: as §1, §2, §3

[7] = tested on: KDM3C; assay: LC-MS demethylation activity assay, KDM3C; assay type: biochemical, human; details: 2 μM KDM, 10 μM H1/H3 peptide, 10 μM FAS, 100 μM LAA, 20 μM 2OG, 50 mM HEPES pH 7.5, 2 h, room temperature; for KDM3C demethylation activity, M: M (mono-) initial methylation state
Experimental: as §1, §2, §3

[8] = tested on: KDM5D; assay: LC-MS demethylation activity assay, KDM5D; assay type: biochemical, human; details: 2 μM KDM, 10 μM H1/H3 peptide, 10 μM FAS, 100 μM LAA, 20 μM 2OG, 50 mM HEPES pH 7.5, 2 h, room temperature; for KDM5D demethylation activity, M: M (mono-) initial methylation state
Experimental: as §1, §2, §3

[9] = 2 μM KDM, 10 μM H1/H3 peptide, 50 mM HEPES pH 7.5, 2 h, T (tri-) initial methylation state
[10] = 2 μM KDM4D, 10 μM peptide, standard conditions, 2 h
[11] = T (tri-) initial methylation state
[12] = 2 μM KDM, 10 μM H1/H3 peptide, 10 μM FAS, 100 μM LAA, 20 μM 2OG, 50 mM HEPES pH 7.5, 2 h
[13] = 2 μM KDM, 10 μM H1/H3 peptide, 50 mM HEPES pH 7.5, 2 h

Substance	substrate conversion (demethylation) by KDM4E ([1]; 2 μM KDM4E, 10 μM peptide, HEPES pH 7.5, 2 h) [%]	KDM4E demethylation activity, T [1, 9]	KDM4D demethylation activity, in words [2, 10]	di-methylated product formed by KDM4D [2, 10] [%]	KDM4D demethylation activity, T ([2]; 2 μM KDM, 10 μM H1/H3 peptide, 10 μM FAS, 100 μM LAA, 20 μM 2OG, 50 mM HEPES pH 7.5, 2 h, T (tri-) initial methylation state)	KDM3A demethylation activity, T [3, 11]	KDM3B demethylation activity, T [4, 11]	KDM6B demethylation activity, T [5, 11]	substrate conversion (demethylation) by KDM4A ([6]; 2 μM KDM4A, 10 μM peptide, HEPES pH 7.5, 2 h) [%]	KDM4A demethylation activity, T [6, 9]	KDM3C demethylation activity, T [7, 11]	KDM5D demethylation activity, T [8, 11]	KDM4D demethylation activity, M [2, 12]	KDM3A demethylation activity, M [3]	KDM3B demethylation activity, M [4]	KDM6B demethylation activity, M [5]	KDM4A demethylation activity, M [6, 13]	KDM3C demethylation activity, M [7]	KDM5D demethylation activity, M [8]
KKKAK[Lys(Me3)]AGATAGKRK [Peptide H1.3K25me3, 15-mer linker histone H1.3 residues 20-34 peptide, tri-methylated K25]	< 10	● [black] (black dots indicate low-level demethylation (<10% conversion))	No activity was observed	< 5	● [red]	● [red]	● [red]	● [red]	< 10	● [black] (black dots indicate low-level demethylation (<10% conversion))	● [red]	● [red]	–	–	–	–	–	–	–
KKKARKmeSAGAAKRKA [Peptide H1.4K25me, 15-mer linker histone H1.4 residues 20-34 peptide, mono-methylated K25]	–	–	–	–	–	–	–	–	–	–	–	–	● [black] (black dots indicate low-level demethylation (<10% conversion))	● [red]	● [red]	● [red]	● [red]	● [red]	● [red]
KKKAKmeKAGATAGKRK [Peptide H1.3K24me, 15-mer linker histone H1.3 residues 20-34 peptide, mono-methylated K24]	–	–	–	–	–	–	–	–	–	–	–	–	● [red]	● [red]	● [red]	● [red]	● [red]	● [red]	● [red]
KKKAAKKmeAGGTPRKA [Peptide H1.2K26me, 15-mer linker histone H1.2 residues 20-34 peptide, mono-methylated K26]	–	–	–	–	–	–	–	–	–	–	–	–	● [red]	● [red]	● [red]	● [red]	● [red]	● [red]	● [red]

— PMC12363342, “Investigating the N-terminal linker histone H1 subtypes as substrates for JmjC lysine demethylases” (RSC Chemical Biology, 2025)
